molecular target: T1, P2Y12 receptor (Homo sapiens, UniProt Q9H244); assay: Functional inhibition of 2-Me-S-ADP induced P2Y12 signalling (35S-GTPγS binding, cell membranes); assay type: biochemical; details: 35S-GTPγS assay, membranes, EC80 concentration of 2-methyl-thio-adenosine diphosphate, 30° C. for 45 min; read-out: GTPγS (IC50 μM)
T1 construct: expressed in transfected cells; host or cells: CHO cells (membrane preparation)
Outline: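 Membranes (5 μg) from P2Y12-transfected CHO cells in pH 7.4 HEPES buffer with 10 μM GDP and saponin were stimulated with an EC80 of 2-methyl-thio-ADP plus compound and ^35S-GTPγS for 45 min at 30° C. Filter-retained ^35S-GTPγS was counted, normalised between agonist and no-agonist activity, and IC50 taken from a four-parameter fit.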

T1 sequence (Q9H244 whole entry): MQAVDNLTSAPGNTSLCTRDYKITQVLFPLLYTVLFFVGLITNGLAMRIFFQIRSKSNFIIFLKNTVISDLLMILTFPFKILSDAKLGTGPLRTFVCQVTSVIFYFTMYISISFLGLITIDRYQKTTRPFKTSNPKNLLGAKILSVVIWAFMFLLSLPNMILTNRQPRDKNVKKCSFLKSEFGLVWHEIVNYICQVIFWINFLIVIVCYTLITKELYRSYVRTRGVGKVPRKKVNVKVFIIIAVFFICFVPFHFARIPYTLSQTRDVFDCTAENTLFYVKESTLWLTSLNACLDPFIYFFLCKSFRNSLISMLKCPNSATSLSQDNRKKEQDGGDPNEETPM

First: CCOC(=O)CSc1nc(N2CCC(C(=O)NS(=O)(=O)Cc3ccc(F)cc3Cl)CC2)c(C#N)cc1C(=O)OCC [Example 108, Ethyl 6-(4-{[(2-chloro-4-fluorobenzyl)sulfonyl]carbamoyl}piperidin-1-yl)-5-cyano-2-[(2-ethoxy-2-oxoethyl)thio]nicotinate]
Second: CCOC(=O)c1cc(C#N)c(N2CCC(C(=O)NS(=O)(=O)Cc3ccccc3)CC2)nc1SCC(=O)O [Example 26, {[6-{4-[(Benzylsulfonyl)carbamoyl]piperidin-1-yl}-5-cyano-3-(ethoxycarbonyl)pyridin-2-yl]thio}acetic acid]
The IC50 of the first is 8.9-fold higher: 0.072 µM for the first, 0.0081 µM for the second. The second is the more potent here.

Going from `CCOC(=O)c1cc(Cl)c(N2CCC(C(=O)NS(=O)(=O)N(C)c3ccc(F)cc3)CC2)nc1CN1CCCC1=O` [Example 92, Ethyl 5-chloro-6-[4-({[(4-fluorophenyl)(methyl)amino]sulfonyl}carbamoyl)piperidin-1-yl]-2-[(2-oxopyrrolidin-1-yl)methyl]nicotinate] to `CCOC(=O)c1cc(Cl)c(N2CCC(C(=O)NS(=O)(=O)Cc3ccccc3)CC2)nc1CN1CCCC1=O` [Example 85, Ethyl 6-{4-[(benzylsulfonyl)carbamoyl]piperidin-1-yl}-5-chloro-2-[(2-oxopyrrolidin-1-yl)methyl]nicotinate], the IC50 falls from 0.077 µM to 0.041 µM (1.9-fold).

First: CCOC(=O)c1cc(C#N)c(N2CCC(C(=O)N(CC(=O)O)S(=O)(=O)Cc3ccccc3)CC2)nc1C [Example 1, N-(benzylsulfonyl)-N-({1-[3-cyano-5-(ethoxycarbonyl)-6-methylpyridin-2-yl]piperidin-4-yl}carbonyl)glycine]
Second: CCOC(=O)c1cc(C#N)c(N2CCC(C(=O)NS(=O)(=O)Cc3ccccc3)CC2)nc1O[C@@H](C)C(=O)OCC [Example 120, Ethyl 6-{4-[(benzylsulfonyl)carbamoyl]piperidin-1-yl}-5-cyano-2-[(1S)-2-ethoxy-1-methyl-2-oxoethoxy]nicotinate]
The IC50 of the first is 4.9-fold higher: 0.093 µM for the first, 0.019 µM for the second.

Going from `Cc1ccc(CS(=O)(=O)NC(=O)C2CCN(c3nc(CN4CCCC4=O)c(C(=O)OC(C)C)cc3C#N)CC2)cc1` [Example 45, Isopropyl 5-cyano-6-(4-{[(4-methylbenzyl)sulfonyl]carbamoyl}piperidin-1-yl)-2-[(2-oxopyrrolidin-1-yl)methyl]nicotinate] to `CC(C)OC(=O)c1cc(C#N)c(N2CCC(C(=O)NS(=O)(=O)Cc3ccc([Si](C)(C)C)cc3)CC2)nc1CN1CCCC1=O` [Example 99, Isopropyl 5-cyano-2-[(2-oxopyrrolidin-1-yl)methyl]-6-[4-({[4-(trimethylsilyl)benzyl]sulfonyl}carbamoyl)piperidin-1-yl]nicotinate], the IC50 rises from 0.019 µM to 0.497 µM (26-fold).

First: CCSC(=O)c1cc(C#N)c(N2CCC(C(=O)NS(=O)(=O)CC3CCCC3)CC2)nc1CN1CCCC1=O [Example 97, S-Ethyl 5-cyano-6-(4-{[(cyclopentylmethyl)sulfonyl]carbamoyl}piperidin-1-yl)-2-[(2-oxopyrrolidin-1-yl)methyl]pyridine-3-carbothioate]
Second: CCOC(=O)c1cc(C#N)c(N2CCC(C(=O)NS(=O)(=O)CC3CCCC3)CC2)nc1CN1CCCCC1=O [Example 60, Ethyl 5-cyano-6-(4-{[(cyclopentylmethyl)sulfonyl]carbamoyl}piperidin-1-yl)-2-[(2-oxopiperidin-1-yl)methyl]nicotinate]
The IC50 of the first is 11-fold higher: 1.22 µM for the first, 0.111 µM for the second.

`CCOC(=O)c1cc(C#N)c(N2CCC(C(=O)NS(=O)(=O)Cc3ccc(Cl)cc3)CC2)nc1CN1CCCC1=O` [Example 39, Ethyl 6-(4-{[(4-chlorobenzyl)sulfonyl]carbamoyl}piperidin-1-yl)-5-cyano-2-[(2-oxopyrrolidin-1-yl)methyl]nicotinate] and `CCOC(=O)c1cc(C#N)c(N2CCC(C(=O)NS(=O)(=O)Cc3ccc(Cl)cc3F)CC2)nc1CN1CCCC1=O` [Example 44, Ethyl 6-(4-{[(4-chloro-2-fluorobenzyl)sulfonyl]carbamoyl}piperidin-1-yl)-5-cyano-2-[(2-oxopyrrolidin-1-yl)methyl]nicotinate] are within 1.5-fold of each other in IC50: 0.011 µM for the first, 0.01 µM for the second.

Compared with `CCOC(=O)c1cc(C#N)c(N2CCC(C(=O)NS(=O)(=O)Cc3ccccc3)CC2)nc1CSc1nccs1` [Example 117, Ethyl 6-{4-[(benzylsulfonyl)carbamoyl]piperidin-1-yl}-5-cyano-2-[(1,3-thiazol-2-ylthio)methyl]nicotinate], `CCOC(=O)c1cc(C#N)c(N2CCC(C(=O)NS(=O)(=O)Cc3ccccc3)CC2)nc1SCCNC(C)=O` [Example 21, Ethyl 2-[(2-acetamidoethyl)thio]-6-{4-[(benzylsulfonyl)carbamoyl]piperidin-1-yl}-5-cyanonicotinate] is 3.5-fold lower in IC50: 0.035 µM for the first, 0.01 µM for the second. The second is the more potent here.

First: CCOC(=O)c1cc(C#N)c(N2CCC(C(=O)NS(=O)(=O)Nc3ccccc3)CC2)nc1CN1CCCCC1=O [Example 64, Ethyl 6-{4-[(anilinosulfonyl)carbamoyl]piperidin-1-yl}-5-cyano-2-[(2-oxopiperidin-1-yl)methyl]nicotinate]
Second: CCOC(=O)c1cc(C#N)c(N2CCC(C(=O)N(C)S(=O)(=O)Cc3ccccc3)CC2)nc1CN1CCCCC1=O [Example 128, Ethyl 6-{4-[(benzylsulfonyl)(methyl)carbamoyl]piperidin-1-yl}-5-cyano-2-[(2-oxopiperidin-1-yl)methyl]nicotinate]
The IC50 of the first is 8.1-fold lower: 0.14 µM for the first, 1.14 µM for the second.

First: CCOC(=O)c1cc(C#N)c(N2CCC(C(=O)NS(=O)(=O)Cc3ccccc3)CC2)nc1OCCn1cccc1 [Example 113, Ethyl 6-{4-[(benzylsulfonyl)carbamoyl]piperidin-1-yl}-5-cyano-2-[2-(1H-pyrrol-1-yl)ethoxy]nicotinate]
Second: CCOC(=O)c1cc(C#N)c(N2CCC(C(=O)NS(=O)(=O)Cc3ccc([Si](C)(C)C)cc3)CC2)nc1CN1CCCCC1=O [Example 102, Ethyl 5-cyano-2-[(2-oxopiperidin-1-yl)methyl]-6-[4-({[4-(trimethylsilyl)benzyl]sulfonyl}carbamoyl)piperidin-1-yl]nicotinate]
The IC50 of the first is 19-fold lower: 0.05 µM for the first, 0.934 µM for the second. The first is the more potent here.

`CCOC(=O)c1cc(C#N)c(N2CCC(C(=O)NS(=O)(=O)CC3CCCCC3)CC2)nc1CN1CCCCC1=O` [Example 61, Ethyl 5-cyano-6-(4-{[(cyclohexylmethyl)sulfonyl]carbamoyl}piperidin-1-yl)-2-[(2-oxopiperidin-1-yl)methyl]nicotinate] showed an IC50 of 0.061 µM.

Reference: patent publication US20080200448A1, “New Pyridine Analogues VIII 518” (ASTRAZENECA AB, priority 2007, published 2008)
